Data set [1] deals with T1, AHR (Homo sapiens, UniProt P35869).
T1 construct: endogenous in cells; host or cells: HepG2 (human), transfected with a DRE-luciferase reporter only
T1 sequence (P35869 11-848): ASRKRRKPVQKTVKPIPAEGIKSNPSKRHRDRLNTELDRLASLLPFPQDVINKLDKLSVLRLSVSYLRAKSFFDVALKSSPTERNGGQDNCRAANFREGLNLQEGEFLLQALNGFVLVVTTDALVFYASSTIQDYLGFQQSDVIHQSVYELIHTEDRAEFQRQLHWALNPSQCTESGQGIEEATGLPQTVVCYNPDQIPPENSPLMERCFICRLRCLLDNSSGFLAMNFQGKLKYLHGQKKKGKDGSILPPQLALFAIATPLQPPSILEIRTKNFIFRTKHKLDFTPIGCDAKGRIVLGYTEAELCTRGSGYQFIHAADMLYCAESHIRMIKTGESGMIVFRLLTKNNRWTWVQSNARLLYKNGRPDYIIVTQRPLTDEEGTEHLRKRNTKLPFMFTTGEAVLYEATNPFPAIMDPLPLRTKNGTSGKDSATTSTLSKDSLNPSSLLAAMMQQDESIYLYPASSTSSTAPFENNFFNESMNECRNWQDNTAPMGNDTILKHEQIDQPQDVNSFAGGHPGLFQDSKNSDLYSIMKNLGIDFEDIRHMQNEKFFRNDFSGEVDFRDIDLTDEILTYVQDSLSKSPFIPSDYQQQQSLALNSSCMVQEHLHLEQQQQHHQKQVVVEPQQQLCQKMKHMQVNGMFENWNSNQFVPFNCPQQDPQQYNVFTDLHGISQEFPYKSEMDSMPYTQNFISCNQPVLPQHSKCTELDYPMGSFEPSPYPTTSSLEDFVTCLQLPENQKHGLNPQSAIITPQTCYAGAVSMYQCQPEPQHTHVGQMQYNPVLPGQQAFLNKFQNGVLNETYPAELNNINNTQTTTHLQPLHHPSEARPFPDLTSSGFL
The experiment in a line: DRE-Luciferase Reporter Assay, HepG2 (agonist). The class given is cell-based. As to conditions: HepG2, Table 3; read-out: DRE-Luc HepG2 - Agonist: Average EC50. Summed up:
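Cells carrying a stably or transiently transfected DRE-luciferase reporter, plated overnight at 37 C, then given agonist for 6, 16 or 24 h before lysis and luciferase read-out. Signal scaled between no ligand (minimum) and activating ligand alone, e.g. TCDD (maximum); EC50 = concentration giving half-maximal luciferase activity.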
On the technique in general: A reporter such as luciferase makes a cellular process visible.

Data set [2] addresses T2, AHR (Mus musculus, UniProt P30561).
T2 sequence (P30561 1-848 F348L/P471L): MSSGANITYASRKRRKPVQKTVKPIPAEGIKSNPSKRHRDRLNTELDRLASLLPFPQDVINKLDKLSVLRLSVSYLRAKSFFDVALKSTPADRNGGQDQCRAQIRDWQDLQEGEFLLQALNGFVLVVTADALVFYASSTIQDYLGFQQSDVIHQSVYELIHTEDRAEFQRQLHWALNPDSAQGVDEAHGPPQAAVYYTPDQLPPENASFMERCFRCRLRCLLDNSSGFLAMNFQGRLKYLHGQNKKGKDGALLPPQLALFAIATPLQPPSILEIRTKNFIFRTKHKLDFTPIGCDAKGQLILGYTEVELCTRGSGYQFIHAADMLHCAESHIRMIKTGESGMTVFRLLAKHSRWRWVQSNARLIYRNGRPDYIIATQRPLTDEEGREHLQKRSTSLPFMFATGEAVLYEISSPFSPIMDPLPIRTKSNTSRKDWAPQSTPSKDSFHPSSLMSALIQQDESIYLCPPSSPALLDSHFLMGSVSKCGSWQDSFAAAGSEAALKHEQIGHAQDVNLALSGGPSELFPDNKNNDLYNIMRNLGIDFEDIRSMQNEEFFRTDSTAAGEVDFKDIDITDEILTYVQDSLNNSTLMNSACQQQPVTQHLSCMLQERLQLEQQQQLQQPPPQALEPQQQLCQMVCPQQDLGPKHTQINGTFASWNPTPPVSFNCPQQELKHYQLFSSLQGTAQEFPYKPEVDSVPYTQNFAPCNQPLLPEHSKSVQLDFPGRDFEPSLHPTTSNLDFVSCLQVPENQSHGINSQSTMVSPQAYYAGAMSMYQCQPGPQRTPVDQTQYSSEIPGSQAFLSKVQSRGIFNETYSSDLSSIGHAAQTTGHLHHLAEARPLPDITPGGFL
As to the kind of experiment: DRE-Luciferase Reporter Assay, Hepa1.6 (agonist). The class given is cell-based, murine. The following applies: Hepa1.6, Table 3; read-out: DRE-Luc Hepa1.6 - Agonist: Average EC50. The procedure: DRE-Luciferase Reporter Assay
AHR binds to Dioxin Responsive Elements (DRE) upstream of genes that it activates. One measure of AHR activity is activation of a reporter gene, such as luciferase, downstream of one or multiple DRE elements. Luciferase activity reflects activation and inhibition of AHR in the cells expressing this reporter.
Murine Hepa1-6 or Hepa-1c1c7 or other murine cell line with a DRE-luciferase reporter either stably or transiently transfected are plated in media in plates (96-well, 384-well or other plates) and incubated overnight at 37 C in a CO2 incubator. Likewise, human HepG2 or other human cell line with a DRE-luciferase reporter either stably or transiently transfected are plated in media in plates (96-well, 384-well or other plates) and incubated overnight at 37 C in a CO2 incubator.
The next day, an AHR agonist compound is added. Cells are incubated for 6, 16 or 24 hours or another time point and then lysed for determination of luciferase activity as a read-out of the AHR activation. Luciferase can be measured with a commercial kit such as the Promega Luciferase kit or any kit or reagents that provide the luciferin substrate for measuring luciferase activity. The level of luciferase with only activating ligand (e.g. such as TCDD, kynurenine, ITE (2-(1H-indole-3-ylcarbonyl)-4-thiazolecarboxylic methyl ester), VAF347, BNF (beta-naphthoflavone), ICZ (6-formylindolo(3,2-b) carbazole or other AHR ligands) added is the maximum signal while the luciferase with no ligand is the minimum signal. EC50s can be determined as the concentration which activates half of the maximum luciferase activity.

Another data set has as its system Cyp1a1 gene expression. Set-up: species or system C57BL/6N mice. As to conditions: mouse, in vivo. As to the method:
C57BL/6N mice are weighed and randomized into treatment groups with group size of 3-5 mice. On study Day 1, treatment is initiated and necropsies follow on day 1 at 4 and 12 hours post-dose and on Day 2, 24 hours post-dose. On Day 1, mice are dosed orally with one dose of the AHR agonist compound(s) that are in a suspension and mixed well before dosing. At the designated time, animals are euthanized and plasma and tissue taken for compound levels (PK) and compound effect (PD) on gene expression. Liver samples and proximal colon are weighed and then frozen for subsequent RNA extraction and RT-PCR analysis. AHR activation is determined by measuring Cyp1a1 gene expression relative to a housekeeping gene, such as GAPDH or HPRT. Cyp1a1 expression levels in the liver are compared to Cyp1a1 levels in the colon to determine a colon:liver ratio to determine the level of GI preferred AHR activation.

The test system of data set [3] is DSS model of Inflammatory Bowel Disease (IBD). It counts as in vivo, C57Bl/6 mice. As to the method: On study day −1, C57Bl/6 mice are weighed and randomized into treatment groups based on body weight. On study day 0, treatment groups are given 2.5% DSS in drinking water and treatment is initiated on the same day, with either vehicle or AHR agonist compound(s). On study day 7, DSS drinking water is replaced with normal drinking water for the remainder of the study. Body weight is measured daily during the entire study. On study day 10, animals are anesthetized with Isoflurane and bled to exsanguination followed by cervical dislocation. The entire colon is removed and measured for length, weight, and weight per length. Overall efficacy of test AR agonist compounds is based on body weight, colon length, and colon histopathology. Histopathology data is assessed for appropriate parameters, as determined by a pathologist and the parameters for these DSS studies can include inflammation, erosion, gland loss, edema, hyperplasia, neutrophil count, mucosal thickening, lymphoid aggregate count and lymphoid aggregate size. The different parameter scores can be added for a summed score for the study histopathology.

Where two headings read alike, the source gives them in different places.

The results in this text go back to patent US12030876B2, “Aryl hydrocarbon receptor (AHR) agonists and uses thereof” (Ikena Oncology, Inc., priority 2019, dated 2024).

Turning to `O=C(O)c1cccc(/N=N/c2cccc(-c3csc(Nc4cccc(C(F)(F)F)c4)n3)c2)c1` [I-161], the EC50 (in general, the concentration that produces a half-maximal response) on AHR [1] lay in the range of 0.1 to 1 µM. At AHR [2], the concentration for a half-maximal effect (EC50) was over 1 µM. The “Cyp1a1 induction in the colon” value with Cyp1a1 gene expression (C57BL/6N, po) is given as “Cyp1a1 induction in the colon at low doses”. Also, in the data set on Cyp1a1 gene expression, the “Cyp1a1 induction in the colon” value is reported as “comparable”, the “Cyp1a1 induction in the liver” value is given as “significantly less induction” and the “colon:liver ratio of Cyp1a1 expression” value is “colon-preferred activity”. The “inflammation and erosion (histopathology)” value in data set [3] (DSS model, relative to vehicle control, FIG. 6, FIG. 19) is “reduced inflammation and erosion”. In data set [3] (DSS model, FIG. 18B), the “activity at all doses compared with CSA” value is listed as “comparable or better than CSA” and the “histopathology data compared with CSA” value is reported as “activity comparable to CSA”. The “inflammation, edema, hyperplasia, and lymphoid aggregate size” value in data set [3] (DSS model, FIG. 19) is given as “reduction”. Further, the “efficacy in DSS IBD mouse model” value in data set [3] (FIGS. 18A-18B) is recorded as “demonstrates efficacy”.
